Reference: ChEMBL document CHEMBL1133595, “Discovery of chiral N,N-disubstituted trifluoro-3-amino-2-propanols as potent inhibitors of cholesteryl ester transfer protein” (J Med Chem, 2000)

Target: T1, Cholesteryl ester transfer protein (Homo sapiens, UniProt P11597)
T1 sequence (P11597 whole entry): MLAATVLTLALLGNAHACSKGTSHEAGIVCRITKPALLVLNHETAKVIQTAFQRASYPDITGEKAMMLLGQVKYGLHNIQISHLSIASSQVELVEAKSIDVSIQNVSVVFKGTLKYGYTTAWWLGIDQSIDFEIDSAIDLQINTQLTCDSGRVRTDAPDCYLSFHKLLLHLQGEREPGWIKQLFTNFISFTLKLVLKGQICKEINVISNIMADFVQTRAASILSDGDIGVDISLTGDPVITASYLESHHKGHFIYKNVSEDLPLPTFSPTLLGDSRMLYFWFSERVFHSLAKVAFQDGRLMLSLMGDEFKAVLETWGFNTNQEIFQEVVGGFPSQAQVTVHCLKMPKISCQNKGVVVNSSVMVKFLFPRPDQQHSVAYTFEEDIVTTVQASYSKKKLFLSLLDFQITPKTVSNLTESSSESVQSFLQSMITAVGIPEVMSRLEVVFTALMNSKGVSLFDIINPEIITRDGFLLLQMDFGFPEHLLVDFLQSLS
Assay: Tested for inhibiting CETP-mediated transfer of [3H]-CE from HDL to LDL in vitro under buffered assay conditions in human serum.
Assay type: cell-free

| IC50 | SMILES |
| --- | --- |
| > 200 µM | OC(CN(Cc1cccc(C(F)(F)F)c1)c1cccc(F)c1)C(F)(F)F (stereo not drawn) |

Target: T1, Cholesteryl ester transfer protein
Assay: Inhibition of recombinant human CETP-mediated transfer of [3H]CE from HDL to LDL

| IC50 | SMILES |
| --- | --- |
| 5 µM | COc1cc(N(Cc2cccc(SC(F)(F)F)c2)C[C@@H](O)C(F)(F)F)cc(OC)c1OC |
| 15 µM | OC(CN(Cc1cccc(C(F)(F)F)c1)c1ccccc1)C(F)(F)F (stereo not drawn) |
| 40 µM | OC(CN(Cc1cccc(C(F)(F)F)c1)c1cccc(F)c1)C(F)(F)F (stereo not drawn) |
| > 100 µM | OC(CN(Cc1ccccc1C(F)(F)F)c1cccc(F)c1)C(F)(F)F (stereo not drawn) |
| > 100 µM | Cc1cccc(CN(CC(O)C(F)(F)F)c2cccc(F)c2)c1 (stereo not drawn) |
| > 100 µM | OC(CN(Cc1ccccc1)c1cccc(F)c1)C(F)(F)F (stereo not drawn) |

| SMILES | IC50 |
| --- | --- |
| OC(CN(Cc1ccc(OC(F)(F)F)cc1)c1cccc(Oc2ccccc2)c1)C(F)(F)F (stereo not drawn) | 4 µM |
